Measurements taken from patent US20230340011A1 (Asteroid Therapeutics, priority 2022, published 2023).

Legend:
SREBP-2 = SREBP-2 (Homo sapiens (Human), UniProt Q12772); assay: In vitro assay SREBP-2: PathHunter U2OS SREBP-2 Nuclear Translocation Cell Line, U18666A-stimulated; format: cell-based; settings: PathHunter U2OS SREBP-2 nuclear translocation cells, U18666A 10 μM, overnight (16 hours)
LXRβ = LXRβ (Homo sapiens (Human), UniProt P55055); assay: In vitro assay LXRβ: PathHunter NHR CHO cells, LXRβ / Steroid Receptor Co-activator Peptide enzyme fragment complementation; format: cell-based; settings: PathHunter NHR CHO cells, full-length human LXRβ and SRCP, chemiluminescent signal; read-out: LXRβ PPI
Procedure, shortened: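 Co-activator recruitment measured by chemiluminescence after signal generation. The CHO line carries full-length human LXRβ tagged with ProLink and an SRCP–enzyme acceptor fusion in the nucleus; cells sat overnight at 37° C before testing, in charcoal-dextran filtered serum medium with 1% final vehicle.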

Chain of LXRβ (P55055 whole entry, the tested form may be a part): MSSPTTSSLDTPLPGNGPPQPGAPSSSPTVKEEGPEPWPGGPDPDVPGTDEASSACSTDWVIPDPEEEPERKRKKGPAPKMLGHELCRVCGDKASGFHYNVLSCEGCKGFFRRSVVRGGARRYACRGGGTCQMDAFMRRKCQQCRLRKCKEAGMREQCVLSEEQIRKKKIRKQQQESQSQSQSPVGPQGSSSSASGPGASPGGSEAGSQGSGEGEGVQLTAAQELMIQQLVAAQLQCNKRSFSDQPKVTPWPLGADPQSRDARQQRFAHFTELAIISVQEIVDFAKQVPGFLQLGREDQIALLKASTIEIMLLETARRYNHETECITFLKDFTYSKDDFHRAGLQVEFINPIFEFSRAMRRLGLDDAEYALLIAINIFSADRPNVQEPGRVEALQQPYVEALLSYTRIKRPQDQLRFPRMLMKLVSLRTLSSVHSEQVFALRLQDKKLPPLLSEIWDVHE

Row | Molecule | IC50 (SREBP-2) [nM] | EC50 (LXRβ) [nM]
1 | C[C@H](OC(=O)C(=O)N1CCCCC1)[C@H]1CC[C@H]2[C@@H]3CC=C4C[C@@H](O)CC[C@]4(C)[C@H]3CC[C@]12C [Example 199, (1S)-1-[(1S,3aS,3bS,7S,9aR,9bS,11aS)-7-hydroxy-9a,11a-dimethyl-1H,2H,3H,3aH,3bH,4H,6H,7H,8H,9H,9aH,9bH,10H,11H,11aH-cyclopenta[a]phenanthren-1-yl]ethyl2-oxo-2-(piperidin-1-yl)acetate] | < 250 | 250 to 1000
2 | Cc1nnc(N2CCN(C(=O)CC[C@@H](C)[C@H]3CC[C@H]4[C@@H]5CC=C6C[C@@H](O)CC[C@]6(C)[C@H]5CC[C@]34C)[C@@H](C)C2)o1 [Example 635, (R)-4-((3S,8S,9S,10R,13R,14S,17R)-3-hydroxy-10,13-dimethyl-2,3,4,7,8,9,10,11,12,13,14,15,16,17-tetradecahydro-1H-cyclopenta[a]phenanthren-17-yl)-1-((S)-2-methyl-4-(5-methyl-1,3,4-oxadiazol-2-yl)piperazin-1-yl)pentan-1-one] | < 250 | > 10000
3 | C[C@H](CCC(=O)N1CCOc2cccnc21)[C@H]1CC[C@H]2[C@@H]3CC=C4C[C@@H](O)CC[C@]4(C)[C@H]3CC[C@]12C [Example 626, (4R)-4-[(1R,3aS,3bS,7S,9aR,9bS,11aR)-7-hydroxy-9a,11a-dimethyl-1H,2H,3H,3aH,3bH,4H,6H,7H,8H,9H,9aH,9bH,10H,11H,11aH-cyclopenta[a]phenanthren-1-yl]-1-{2H,3H,4H-pyrido[3,2-b][1,4]oxazin-4-yl}pentan-1-one] | < 250 | 1000 to 10000
4 | CC(=O)N[C@H]1CCN(C(=O)CC[C@@H](C)[C@H]2CC[C@H]3[C@@H]4CC=C5C[C@@H](O)CC[C@]5(C)[C@H]4CC[C@]23C)C1 [Example 322, N—((S)-1-((R)-4-((3S,8S,9S,10R,13R,14S,17R)-3-hydroxy-10,13-dimethyl-2,3,4,7,8,9,10,11,12,13,14,15,16,17-tetradecahydro-1H-cyclopenta[a]phenanthren-17-yl)pentanoyl)pyrrolidin-3-yl)acetamide] | < 250 | > 10000
5 | CCCN(OC)C(=O)CC[C@@H](C)[C@H]1CC[C@H]2[C@@H]3CC=C4C[C@@H](O)CC[C@]4(C)[C@H]3CC[C@]12C [Example 13, (R)-4-((3S,8S,9S,10R,13R,14S,17R)-3-hydroxy-10,13-dimethyl-2,3,4,7,8,9,10,11,12,13,14,15,16,17-tetradecahydro-1H-cyclopenta[a]phenanthren-17-yl)-N-methoxy-N-propylpentanamide] | < 250 | 250 to 1000
6 | (R)-1-(4-(5,6-dimethoxypyrimidin-4-yl)piperazin-1-yl)-4-((3S,8S,9S,10R,13R,14S,17R)-3-hydroxy-10,13-dimethyl-2,3,4,7,8,9,10,11,12,13,14,15,16,17-tetradecahydro-1H-cyclopenta[a]phenanthren-17-yl)pentan-1-one [Example 620] | < 250 | > 10000
7 | CCOc1nccc(N2CCN(C(=O)CC[C@@H](C)[C@H]3CC[C@H]4[C@@H]5CC=C6C[C@@H](O)CC[C@]6(C)[C@H]5CC[C@]34C)CC2)n1 [Example 563, (R)-1-(4-(2-ethoxypyrimidin-4-yl)piperazin-1-yl)-4-((3S,8S,9S,10R,13R,14S,17R)-3-hydroxy-10,13-dimethyl-2,3,4,7,8,9,10,11,12,13,14,15,16,17-tetradecahydro-1H-cyclopenta[a]phenanthren-17-yl)pentan-1-one] | < 250 | > 10000
8 | C[C@H](CCC(=O)N1CCN(c2cccnc2O)CC1)[C@H]1CC[C@H]2[C@@H]3CC=C4C[C@@H](O)CC[C@]4(C)[C@H]3CC[C@]12C [Example 640, (R)-4-((3S,8S,9S,10R,13R,14S,17R)-3-hydroxy-10,13-dimethyl-2,3,4,7,8,9,10,11,12,13,14,15,16,17-tetradecahydro-1H-cyclopenta[a]phenanthren-17-yl)-1-(4-(2-hydroxypyridin-3-yl)piperazin-1-yl) pentan-1-one] | < 250 | > 10000
9 | C[C@H](CCC(=O)N1CCN(C(=O)N2CCC[C@@H]2C)CC1)[C@H]1CC[C@H]2[C@@H]3CC=C4C[C@@H](O)CC[C@]4(C)[C@H]3CC[C@]12C [Example 666, (R)-4-((3S,8S,9S,10R,13R,14S,17R)-3-hydroxy-10,13-dimethyl-2,3,4,7,8,9,10,11,12,13,14,15,16,17-tetradecahydro-1H-cyclopenta[a]phenanthren-17-yl)-1-(4-((S)-2-methylpyrrolidine-1-carbonyl)piperazin-1-yl)pentan-1-one] | < 250 | > 10000
10 | C[C@H](CCC(=O)N1CCN(C(=O)N2CC[C@@H]2C)CC1)[C@H]1CC[C@H]2[C@@H]3CC=C4C[C@@H](O)CC[C@]4(C)[C@H]3CC[C@]12C [Example 665, (R)-4-((3S,8S,9S,10R,13R,14S,17R)-3-hydroxy-10,13-dimethyl-2,3,4,7,8,9,10,11,12,13,14,15,16,17-tetradecahydro-1H-cyclopenta[a]phenanthren-17-yl)-1-(4-((S)-2-methylazetidine-1-carbonyl)piperazin-1-yl)pentan-1-one] | < 250 | > 10000
11 | CC(O)c1cccnc1CC[C@@H](C)[C@H]1CC[C@H]2[C@@H]3CC=C4C[C@@H](O)CC[C@]4(C)[C@H]3CC[C@]12C (stereo partly drawn) [Example 455, (3S,8S,9S,10R,13R,14S,17R)-17-((2R)-4-(3-(1-hydroxyethyl)pyridin-2-yl)butan-2-yl)-10,13-dimethyl-2,3,4,7,8,9,10,11,12,13,14,15,16,17-tetradecahydro-1H-cyclopenta[a]phenanthren-3-ol] | < 250 | < 250
12 | C[C@H](CCc1ncco1)[C@H]1CC[C@H]2[C@@H]3CC=C4C[C@@H](O)CC[C@]4(C)[C@H]3CC[C@]12C [Example 137, (3S,8S,9S,10R,13R,14S,17R)-10,13-dimethyl-17-((R)-4-(oxazol-2-yl)butan-2-yl)-2,3,4,7,8,9,10,11,12,13,14,15,16,17-tetradecahydro-1H-cyclopenta[a]phenanthren-3-ol] | 250 to 1000 | 1000 to 10000
13 | C[C@H](CCC(=O)N1CC=C(C2CC2)CC1)[C@H]1CC[C@H]2[C@@H]3CC=C4C[C@@H](O)CC[C@]4(C)[C@H]3CC[C@]12C [Example 193A, (R)-1-(4-cyclopropyl-3,6-dihydropyridin-1(2H)-yl)-4-((3S,8S,9S,10R,13R,14S,17R)-3-hydroxy-10,13-dimethyl-2,3,4,7,8,9,10,11,12,13,14,15,16,17-tetradecahydro-1H-cyclopenta[a]phenanthren-17-yl)pentan-1-one] | < 250 | 250 to 1000
14 | C[C@H](CCC(=O)N1CCN(C(=O)OC2CC2)[C@@H](C)C1)[C@H]1CC[C@H]2[C@@H]3CC=C4C[C@@H](O)CC[C@]4(C)[C@H]3CC[C@]12C [Example 570, Cyclopropyl(S)-4-((R)-4-((3S,8S,9S,10R,13R,14S,17R)-3-hydroxy-10,13-dimethyl-2,3,4,7,8,9,10,11,12,13,14,15,16,17-tetradecahydro-1H-cyclopenta[a]phenanthren-17-yl)pentanoyl)-2-methylpiperazine-1-carboxylate] | < 250 | > 10000
15 | CC(=O)N1CCN(C(=O)CC[C@@H](C)[C@H]2CC[C@H]3[C@@H]4CC=C5C[C@@H](O)CC[C@]5(C)[C@H]4CC[C@]23C)[C@@H](C)C1 [Example 276, (4R)-4-[(1R,3aS,3bS,7S,9aR,9bS,11aR)-7-hydroxy-9a,11a-dimethyl-1H,2H,3H,3aH,3bH,4H,6H,7H,8H,9H,9aH,9bH,10H,11H,11aH-cyclopenta[a]phenanthren-1-yl]-1-[(2S)-4-acetyl-2-methylpiperazin-1-yl]pentan-1-one] |  | > 10000
16 | C[C@@H]1CCCN(C(=O)CC[C@@H](C)[C@H]2CC[C@H]3[C@@H]4CC=C5C[C@@H](O)CC[C@]5(C)[C@H]4CC[C@]23C)O1 [Example 60, (R)-4-((3S,8S,9S,10R,13R,14S,17R)-3-hydroxy-10,13-dimethyl-2,3,4,7,8,9,10,11,12,13,14,15,16,17-tetradecahydro-1H-cyclopenta[a]phenanthren-17-yl)-1-((R)-6-methyl-1,2-oxazinan-2-yl)pentan-1-one] |  | 250 to 1000
17 | C[C@H](CCC(=O)N1CCN(C(=O)OCCO)CC1)[C@H]1CC[C@H]2[C@@H]3CC=C4C[C@@H](O)CC[C@]4(C)[C@H]3CC[C@]12C [Example 281, 2-hydroxyethyl 4-[(4R)-4-[(1R,3aS,3bS,7S,9aR,9bS,11aR)-7-hydroxy-9a,11a-dimethyl-1H,2H,3H,3aH,3bH,4H,6H,7H,8H,9H,9aH,9bH,10H,11H,11aH-cyclopenta[a]phenanthren-1-yl]pentanoyl]piperazine-1-carboxyla] |  | > 10000
18 | C[C@H]1CON(C(=O)CC[C@@H](C)[C@H]2CC[C@H]3[C@@H]4CC=C5C[C@@H](O)CC[C@]5(C)[C@H]4CC[C@]23C)C1 [Example 58, (R)-4-((3S,8S,9S,10R,13R,14S,17R)-3-hydroxy-10,13-dimethyl-2,3,4,7,8,9,10,11,12,13,14,15,16,17-tetradecahydro-1H-cyclopenta[a]phenanthren-17-yl)-1-((R)-4-methylisoxazolidin-2-yl)pentan-1-one] |  | 250 to 1000
19 | CCN(OC)C(=O)CC[C@@H](C)[C@H]1CC[C@H]2[C@@H]3CC=C4C[C@@H](O)CC[C@]4(C)[C@H]3CC[C@]12C [Example 11, (R)—N-ethyl-4-((3S,8S,9S,10R,13R,14S,17R)-3-hydroxy-10,13-dimethyl-2,3,4,7,8,9,10,11,12,13,14,15,16,17-tetradecahydro-1H-cyclopenta[a]phenanthren-17-yl)-N-methoxypentanamide] |  | 250 to 1000
